Assay results: patent US5314932A, “Antifouling coating and method for using same” (priority 1993, dated 1994)

What was measured:
nauplius stage larvae = assay: Toxicity Assay for Nauplius Larvae (naupliar toxicity); conditions: for Naupliar Toxicity (LD50): lethal dose killing 50 percent of naupliar stage larvae, 100 kDa-filtered seawater, 28° C., approx. 15 h light and 9 h darkness, 1440 min; for LD50 compared with TBT, digoxigenin, and digoxin: nauplius stage larvae, comparison with known antifouling agents
Description: (§1) Adult individuals of the acorn barnacle Balanus amphritrite Darwin were collected from the Duke University Marine Laboratory seawall in Beaufort, N.C. Collected specimens were crushed, and the nauplius stage larvae released therefrom were cultured to cyprid stage for cyprid-state assays according to the methods of Rittschof et al., J. Exp. Mar. Biol. Ecol. 82:131-146 (1984).
Toxicity assays were conducted by adding nauplius stage larvae to Falcon 50×9 mm polystyrene Petri dishes containing 5 ml of 100 kDa-filteredseawater. Experimental dishes received a dose of bufalin, cinobufatalin, TBT, digoxigenin, or digoxin. Doses receiving no test compound served as negative controls. The dishes were incubated at 28° C. under light for approximately 15 hours and in darkness for approximately 9 hours.
After incubation, the dishes were examined under a dissecting microscope to determine whether the larvae were alive or dead. […] The number of dead and living larvae was counted and recorded.
Data for toxicity assays performed on nauplius stage larvae is summarized in Table 1, which lists the lethal dose for each compound required to kill 50 percent of naupliar stage larvae in a sample (LD50).

cyprid stage larvae = type: in vivo, acorn barnacle Balanus amphritrite Darwin; conditions: for Cyprid Settlement (ED50): dose which prevents settlement of 50 percent of cyprid stage larvae (EC50), three-day old cyprids, 100 kDa-filtered seawater (approx. 35 ppt), 28° C., approx. 15 h light and 9 h darkness; for EC50 compared with TBT, digoxigenin, and digoxin: cyprid stage larvae settlement, comparison in words
Description: as §1
Settlement assays were performed as previously described by Rittschof et al., J. Chem. Ecol. 11:551-563 (1985). Three-day old cyprid larvae were added to Falcon 50×9 mm polystyrene petri dishes. Each dish contained 5 ml of 100 kDa-filtered seawater (approximately 35 ppt salinity). […] Doses were varied in an effort to determine inhibition levels. Dishes receiving no test compound served as negative controls. The number of replicate dishes used in each assay ranged from 2 to 4, depending on larval availability. The dishes were incubated at 28° C. under light for approximately 15 hours and in darkness for approximately 9 hours.
After incubation, the dishes were examined under a dissecting microscope to determine whether larvae were still alive. The larvae were then euthanized by the addition of several drops of 10 percent formalin. The numbers of attached and unattached larvae were then counted.
Settlement was calculated as the percentage of total larvae attached to the dish. Differences in the rate of settlement for test dishes versus controls were assessed for statistical significance through the use of a G test for independence described by Sokal et al., Biometry (Freeman & Co., San Francisco 1981).

| SMILES | Naupliar Toxicity (LD50) (nauplius stage larvae) | Cyprid Settlement (ED50) (cyprid stage larvae) | LD50 compared with TBT, digoxigenin, and digoxin (nauplius stage larvae) | EC50 compared with TBT, digoxigenin, and digoxin (cyprid stage larvae) |
| --- | --- | --- | --- | --- |
| C[C@]12CC[C@H](O)C[C@H]1CC[C@@H]1[C@@H]2C[C@@H](O)[C@]2(C)[C@@H](C3=CC(=O)OC3)CC[C@]12O [Digoxigenin, reference compound] | 3,720 ng/L | > 50,000 ng/L | – | – |
| C[C@]12CC[C@H](O)C[C@H]1CC[C@@H]1[C@@H]2CC[C@]2(C)[C@@H](c3ccc(=O)oc3)CC[C@]12O [Bufalin, 3,14-dihydroxybufa-20,22 dienolide] | 27 ng/L | 19 ng/L | much lower LD50 values than known antifouling agents TBT, digoxigenin, and digoxin | much lower EC50 values than TBT, digoxigenin, and digoxin |
| CC(=O)O[C@H]1[C@H]2O[C@]23[C@@H]2CC[C@]4(O)C[C@@H](O)CC[C@]4(C)[C@H]2CC[C@]3(C)[C@H]1c1ccc(=O)oc1 [Cinobufotalin, 16-(acetyloxy)-14,15-epoxy-3,5dihydroxybufa-20,22-enolide] | 837 ng/L | 2,600 ng/L | much lower LD50 values than known antifouling agents TBT, digoxigenin, and digoxin | much lower EC50 values than TBT, digoxigenin, and digoxin |
| CC(=O)O[C@H]1[C@H]2O[C@]23[C@@H]2CC[C@@H]4C[C@@H](O)CC[C@]4(C)[C@H]2CC[C@]3(C)[C@H]1c1ccc(=O)oc1 [Cinobufagin, 16-(acetyloxy)-14,15-epoxy-3 hydroxybufa-20,22-enolide] | 37 ng/L | 162 ng/L | much lower LD50 values than known antifouling agents TBT, digoxigenin, and digoxin | much lower EC50 values than TBT, digoxigenin, and digoxin |
| C[C@H]1O[C@@H](O[C@H]2[C@@H](O)C[C@H](O[C@H]3[C@@H](O)C[C@H](O[C@H]4CC[C@@]5(C)[C@H](CC[C@@H]6[C@@H]5C[C@@H](O)[C@]5(C)[C@@H](C7=CC(=O)OC7)CC[C@]65O)C4)O[C@@H]3C)O[C@@H]2C)C[C@H](O)[C@@H]1O [Digoxin, reference compound] | 5,450 ng/L | 6,300 ng/L | – | – |
| CCC[CH2][Sn]([Cl])([CH2]CCC)[CH2]CCC [TBT Chloride, tri-n-butyl tin chloride, reference compound] | ~3,400 ng/L | – | – | – |
